In patent US7563774B2, “Combination of FBPase inhibitors and antidiabetic agents useful for the treatment of diabetes” (Metabasis Therapeutics, Inc., priority 2000, dated 2009):
Where two headings read alike, the source gives them in different places.

How the values were obtained:
Goto-Kakizaki rats = assay: Acute combination treatment of an alpha glucosidase inhibitor and an FBPase inhibitor in Goto-Kakizaki rats (Example EE); assay type: in vivo, rat
Protocol: Goto-Kakizaki rats, an animal model of lean NIDDM, were purchased at 5 weeks of age from Charles River Japan, Inc. (Tokyo, Japan). The rats were maintained under standard vivarium conditions (24-26° C., 12-hour light cycle, 12-hour dark cycle) and received standard chow and water ad libitum. At 18 weeks of age, animals were divided into 4 groups (n=5/group). The treatment groups were control, Compound J, acarbose (Bayer, Japan), and the combination of Compound J and acarbose. All animals were given 1 g/kg of corn starch by oral gavage. […] Acarbose was administered orally at a dose of 1 mg/kg simultaneously with starch. Blood glucose levels in tail vein samples were measured by means of a Glucoloader-F, an automatic glucose analyzer, (A&T Co., Ltd., Tokyo, Japan).

[1] = system: Sprague-Dawley or Wistar rats; details: fasted rat, cited from earlier work; for ED50: 2 h
[2] = system: Zucker Diabetic Fatty rats; assay: Acute combination treatment of an insulin secretagogue and Compound J in the ZDF rat (Example X); assay type: in vivo
Protocol: Experimental Protocol: Zucker Diabetic Fatty rats (9.5 weeks of age) were fasted for 5 hours starting at 8 am. The animals were then divided into 4 treatments groups with statistically similar baseline blood glucose levels. Test compounds were administered by oral gavage. The treatments were as shown below:
One hour after saline or drug administration, all animals received a simulated meal in the form of an oral bolus of glucose (1 g/kg). Blood glucose was then monitored at regular time intervals for 3 hours. Test compounds were prepared as suspensions in 0.1% carboxymethylcellulose. Blood samples were obtained by nicking of a tail vein. Blood glucose was measured by means of a HemoCue glucose analyzer according to the manufacturer's instructions (HemoCue Inc., Mission Viejo, Calif.). Results are expressed as the mean ± standard error of the mean for all values.

ZDF rats = assay: Chronic combination treatment of an insulin secretagogue and an FBPase inhibitor in the ZDF rat (Example Y); assay type: in vivo; details: maximal doses, 2 to 12 weeks
Source text: Male ZDF rats are purchased at 7 weeks of age from Genetics Models Inc. (Indianapolis, Ind.). […] At 8 weeks of age, animals are divided into 4 treatment groups (n=8/group). The treatments are control, Compound J, glyburide, and the combination of Compound J and glyburide. […] Other parameters measured by standard assays include: lactate, glycerol, alanine, triglycerides, free fatty acids, ketone bodies, hepatic and muscle glycogen, cholesterol, VLDL, HDL, hemoglobin Alc, body weight, food and water intake, as well as other measures of carbohydrate, lipid, and protein metabolism. […] Differences between groups are evaluated ANOVA using an appropriate post hoc test. Results are considered significant with p<0.05.

SMILES | Plasma Glucose, relative value (% of pre-treatment value) (Goto-Kakizaki rats; 0 min) | Plasma Glucose (Goto-Kakizaki rats; 0 min, Compound J 10 mg/kg p.o. at −60 min, acarbose 1 mg/kg p.o. with starch) [mg/dL] | Plasma Glucose (Goto-Kakizaki rats; 30 min after starch) [mg/dL] | Plasma Glucose, relative value (% of pre-treatment value) (Goto-Kakizaki rats; 30 min after starch) | Plasma Glucose (Goto-Kakizaki rats; 60 min after starch) [mg/dL] | Plasma Glucose, relative value (% of pre-treatment value) (Goto-Kakizaki rats; 60 min after starch) | Plasma Glucose (Goto-Kakizaki rats; 120 min after starch) [mg/dL] | Plasma Glucose, relative value (% of pre-treatment value) (Goto-Kakizaki rats; 120 min after starch) | Plasma Glucose (Goto-Kakizaki rats; 240 min after starch) [mg/dL] | Plasma Glucose, relative value (% of pre-treatment value) (Goto-Kakizaki rats; 240 min after starch) | Plasma Glucose, relative value (% of pre-treatment value) (Goto-Kakizaki rats; −60 min) | Plasma Glucose (Goto-Kakizaki rats; −60 min relative to starch 1 g/kg) [mg/dL] | ED50 [1] | Gluc low,% ([1]; Dose 0.1) [%] | blood glucose after oral glucose load (FIG. 1) ([2]; glyburide 100 mg/kg, Compound J 300 mg/kg p.o.) | AUC glucose ([2]; initial 4 hours post drug, glyburide 100 mg/kg, Compound J 300 mg/kg p.o., oral glucose 1 g/kg) [mg·h/dL] | maximally efficacious dose ([2]; pilot studies, ZDF rat) [mg/kg] | glycemic control (ZDF rats) | Gluc low,% ([1]; Dose 0.3) [%]
C[C@H]1O[C@H](O[C@H]2[C@H](O)[C@@H](O)[C@@H](O[C@H]3[C@H](O)[C@@H](O)C(O)O[C@@H]3CO)O[C@@H]2CO)[C@H](O)[C@@H](O)[C@@H]1N[C@H]1C=C(CO)[C@@H](O)[C@H](O)[C@H]1O (some centres unmarked) [Acarbose, acarbose, reference compound] | (129.4 +/− 2.8) % | 226.4 ± 5.3 | 243.8 ± 8.5 | (139.5 +/− 6.0) % | 247.2 ± 8.2 | (141.3 +/− 4.9) % | 209.4 ± 5.9 | (119.9 +/− 4.9) % | 164.2 ± 10.7 | (93.5 +/− 4.7) % | (100.0 +/− 0.0) % | 175.4 ± 5.9 | – | – | – | – | – | – | –
CCC1=C(C)CN(C(=O)NCCc2ccc(S(=O)(=O)NC(=O)N[C@H]3CC[C@H](C)CC3)cc2)C1=O [Glimepiride] | – | – | – | – | – | – | – | – | – | – | – | – | 0.182 (2 h) mg/kg | −18 | – | – | – | – | –
COc1ccc(Cl)cc1C(=O)NCCc1ccc(S(=O)(=O)NC(=O)NC2CCCCC2)cc1 [Glyburide, glyburide, reference compound] | – | – | – | – | – | – | – | – | – | – | – | – | 0.255 (2 h) mg/kg | – | suppressed the rise in blood glucose levels | 1324 ± 132 | 100 | becomes less and less effective over time | −25
